Assay results: PubChem BioAssay AID2060627 (Molecular Pharmacology Branch, DTP, NCI, 2025)
Where “and” joins values, the source holds several entries; their conditions need not be identical. Identical values can stand only once.

System: 156681-154-R-J1-PDC complex spheroid viability
Assay: Anticancer human tumor 156681-154-R-J1-PDC patient-derived melanoma cell line growth inhibition [CLK]
Details: for viability, T/C: stronger effect = lower value
Outline: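 Multi-cell-type spheroids combined patient-derived tumor cells with HUVEC endothelial cells and human mesenchymal stem cells. Paired agents were dosed in half-log steps down from about clinical Cmax, or from 10 microM where Cmax was unknown.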

[1] = curve of first compound, second compound 0.0316 µM
[2] = curve of first compound, second compound 0.1 µM
[3] = curve of first compound, second compound 0.316 µM
[4] = curve of first compound, second compound 1 µM
[5] = curve of first compound, second compound 3.16 µM
[6] = curve of first compound, second compound 10 µM
[7] = second compound 0.0316 µM, first compound 0.0316 µM
[8] = second compound 0.0316 µM, first compound 0.1 µM
[9] = second compound 0.0316 µM, first compound 0.316 µM
[10] = second compound 0.0316 µM, first compound 1 µM
[11] = second compound 0.0316 µM, first compound 3.16 µM
[12] = second compound 0.0316 µM, first compound 10 µM
[13] = second compound 0.1 µM, first compound 0.0316 µM
[14] = second compound 0.1 µM, first compound 0.1 µM
[15] = second compound 0.1 µM, first compound 0.316 µM
[16] = second compound 0.1 µM, first compound 1 µM
[17] = second compound 0.1 µM, first compound 3.16 µM
[18] = second compound 0.1 µM, first compound 10 µM
[19] = second compound 0.316 µM, first compound 0.0316 µM
[20] = second compound 0.316 µM, first compound 0.1 µM
[21] = second compound 0.316 µM, first compound 0.316 µM
[22] = second compound 0.316 µM, first compound 1 µM
[23] = second compound 0.316 µM, first compound 3.16 µM
[24] = second compound 0.316 µM, first compound 10 µM
[25] = second compound 1 µM, first compound 0.0316 µM
[26] = second compound 1 µM, first compound 0.1 µM
[27] = second compound 1 µM, first compound 0.316 µM
[28] = second compound 1 µM, first compound 1 µM
[29] = second compound 1 µM, first compound 3.16 µM
[30] = second compound 1 µM, first compound 10 µM
[31] = second compound 3.16 µM, first compound 0.0316 µM
[32] = second compound 3.16 µM, first compound 0.1 µM
[33] = second compound 3.16 µM, first compound 0.316 µM
[34] = second compound 3.16 µM, first compound 1 µM
[35] = second compound 3.16 µM, first compound 3.16 µM
[36] = second compound 3.16 µM, first compound 10 µM
[37] = second compound 10 µM, first compound 0.0316 µM
[38] = second compound 10 µM, first compound 0.1 µM
[39] = second compound 10 µM, first compound 0.316 µM
[40] = second compound 10 µM, first compound 1 µM
[41] = second compound 10 µM, first compound 3.16 µM
[42] = second compound 10 µM, first compound 10 µM
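Note: spheroids exposed to the agents for seven days.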
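Throughout, for viability, T/C: 100% = DMSO vehicle control viability.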

For `COc1ccc([C@@H](O)c2cc(-c3ncnc4cc(N5CCOCC5)ccc34)c(F)cc2Cl)nn1`, the viability, T/C (compound 0.0316 µM) was 109% and 79.3%, the viability, T/C (compound 0.1 µM) was 80.7% and 73.7% and the viability, T/C (compound 0.316 µM) was 90.2% and 74.1%. The viability, T/C (compound 1 µM) was 74.8% and 48.6%, the viability, T/C (compound 3.16 µM) was 49.6% and 41.3% and the viability, T/C (compound 10 µM) was 24.8% and 27.6%. The IC50 (curve of compound) was 3380 nM and 1260 nM.
For `COc1cccc2c1C(=O)c1c(O)c3c(c(O)c1C2=O)CC(O)(C(=O)CO)CC3OC1CC(N)C(O)C(C)O1` (stereo not given) + CN1CCN(c2cc(C(=O)Nc3cc4cc(-c5cnn(C)c5)ccc4cn3)ccn2)CC1, the IC50 [1] was under 31.6 nM, the IC50 [2] was under 31.6 nM and the IC50 [3] was under 31.6 nM. For the same compound, the IC50 [4] was under 31.6 nM, the IC50 [5] was under 31.6 nM and the IC50 [6] was under 31.6 nM. The viability, T/C [7] was 43.4%, the viability, T/C [8] was 48.3% and the viability, T/C [9] was 4.36%. For the same compound, the viability, T/C [10] was 0.18%, the viability, T/C [11] was 0.09% and the viability, T/C [12] was 3.75%. It also gave a viability, T/C [13] of 30.6%, a viability, T/C [14] of 22.5% and a viability, T/C [15] of 3.39%. The viability, T/C [16] was 0.14%, the viability, T/C [17] was 0.09% and the viability, T/C [18] was 0.26%. For the same compound, the viability, T/C [19] was 11.2%, the viability, T/C [20] was 5.67% and the viability, T/C [21] was 0.29%. The viability, T/C [22] was 0.1%, the viability, T/C [23] was 0.2% and the viability, T/C [24] was 1.51%. It also gave a viability, T/C [25] of 0.37%, a viability, T/C [26] of 0.13% and a viability, T/C [27] of 0.57%. It also gave a viability, T/C [28] of 2.6%, a viability, T/C [29] of 0.76% and a viability, T/C [30] of 0.18%. For the same compound, the viability, T/C [31] was 0.05%, the viability, T/C [32] was 0.07% and the viability, T/C [33] was 0.08%. It also gave a viability, T/C [34] of 1.69%, a viability, T/C [35] of 1.88% and a viability, T/C [36] of 0.27%. It also gave a viability, T/C [37] of 0.05%, a viability, T/C [38] of 1.66% and a viability, T/C [39] of 2.85%. For the same compound, the viability, T/C [40] was 0.12%, the viability, T/C [41] was 1.59% and the viability, T/C [42] was 0.51%.
Compound `C#Cc1c(F)ccc2cc(O)cc(-c3ncc4c(N5CC6CCC(C5)N6)nc(OCC56CCCN5CC(F)C6)nc4c3F)c12` (stereo not given) + CNC(=O)c1ccc(Nc2nc(OC3CCCC3)c3c(-c4ccc5nc(C)oc5c4)c[nH]c3n2)c(OC)c1 has an IC50 [1] of over 10000 nM, an IC50 [2] of over 10000 nM and an IC50 [3] of over 10000 nM. It also gave an IC50 [4] of 114 nM, an IC50 [5] of under 31.6 nM and an IC50 [6] of under 31.6 nM. It also gave a viability, T/C [7] of 86%, a viability, T/C [8] of 94.4% and a viability, T/C [9] of 104%. The viability, T/C [10] was 109%, the viability, T/C [11] was 113% and the viability, T/C [12] was 101%. It also gave a viability, T/C [13] of 53.5%, a viability, T/C [14] of 73.8% and a viability, T/C [15] of 60.3%. The viability, T/C [16] was 70%, the viability, T/C [17] was 73.6% and the viability, T/C [18] was 62.9%. For the same compound, the viability, T/C [19] was 62.4%, the viability, T/C [20] was 48.6% and the viability, T/C [21] was 66.4%. For the same compound, the viability, T/C [22] was 65.9%, the viability, T/C [23] was 67% and the viability, T/C [24] was 65.2%. The viability, T/C [25] was 43.2%, the viability, T/C [26] was 53.5% and the viability, T/C [27] was 47.9%. It also gave a viability, T/C [28] of 56%, a viability, T/C [29] of 63.6% and a viability, T/C [30] of 31.6%. For the same compound, the viability, T/C [31] was 54.5%, the viability, T/C [32] was 49.8% and the viability, T/C [33] was 39.2%. For the same compound, the viability, T/C [34] was 49.8%, the viability, T/C [35] was 50.4% and the viability, T/C [36] was 20.2%. For the same compound, the viability, T/C [37] was 45.7%, the viability, T/C [38] was 38.5% and the viability, T/C [39] was 36.7%. For the same compound, the viability, T/C [40] was 50%, the viability, T/C [41] was 43% and the viability, T/C [42] was 13.2%.
With `COC1C=CCC(C)C(C)S(=O)(=O)NC(=O)c2ccc3c(c2)N(CC2CCC21)CC1(CCCc2cc(Cl)ccc21)CO3` (stereo not given) the viability, T/C (compound 0.0316 µM) was 86.6% and 107%, the viability, T/C (compound 0.1 µM) was 85.4% and 73.3% and the viability, T/C (compound 0.316 µM) was 86.8% and 70.1%. The viability, T/C (compound 1 µM) was 61.2% and 61.9%, the viability, T/C (compound 3.16 µM) was 14.6% and 10.7% and the viability, T/C (compound 10 µM) was 1.35% and 1.31%. The IC50 (curve of compound) was 1330 nM and 861 nM.
With `CC(Nc1ccc2c(c1)OCCn1cc(N3C(=O)OCC3C(F)F)nc1-2)C(N)=O` (stereo not given) the viability, T/C (compound 0.0316 µM) was 67.3% and 70.1%, the viability, T/C (compound 0.1 µM) was 65.7% and 55.4% and the viability, T/C (compound 0.316 µM) was 53.8% and 52.7%. For the same compound, the viability, T/C (compound 1 µM) was 39.9% and 37.6%, the viability, T/C (compound 3.16 µM) was 32.3% and 33.9% and the viability, T/C (compound 10 µM) was 23.5% and 19.5%. The IC50 (curve of compound) was 460 nM and 305 nM.
